The target in test [1] is T1, human jejunal NK2 receptor (Homo sapiens, UniProt P21452).
T1 construct: expressed in transfected cells; host or cells: HSKR-1 cells (mouse 3T3 fibroblasts)
T1 sequence (P21452 1-398): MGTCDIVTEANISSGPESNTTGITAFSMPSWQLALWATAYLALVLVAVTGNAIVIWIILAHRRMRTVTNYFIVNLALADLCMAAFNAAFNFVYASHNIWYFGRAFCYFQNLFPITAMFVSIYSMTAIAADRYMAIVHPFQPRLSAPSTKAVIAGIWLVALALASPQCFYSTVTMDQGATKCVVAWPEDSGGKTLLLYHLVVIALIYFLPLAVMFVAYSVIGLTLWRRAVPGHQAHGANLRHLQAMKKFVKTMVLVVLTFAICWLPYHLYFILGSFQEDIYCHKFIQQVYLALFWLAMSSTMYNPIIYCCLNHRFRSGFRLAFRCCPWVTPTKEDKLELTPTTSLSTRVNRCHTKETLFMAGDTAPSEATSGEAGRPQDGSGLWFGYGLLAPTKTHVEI
The experiment in a line: Antagonism of iodinated tachykinin binding to NK2 receptors (Example A). The procedure:
(§1) One skilled in the art can determine the NK1 receptor and NK2 receptor affinity in vitro as follows. The NK1 receptor affinity of tachykinin antagonists is evaluated in guinea pig lungs (Keystone Biologicals, Cleveland, OH) and affinity for the NK2 receptor is evaluated in HSKR-1 cells (which are mouse 3T3 fibroblasts expressing the human jejunal NK2 receptor). Tissues or cells are homogenized with a Polytron in 15 volumes of 50 mM Tris-HC1 buffer (pH 7.4, 4°C) and centrifuged. The pellet is resuspended in Tris-HCl buffer and is centrifuged; the pellet is washed twice by resuspension. The final pellet is resuspended at a concentration of 40 mg/ml for tissues and 20 mg/ml for cells in incubation buffer and remains at room temperature for at least 15 min prior to use. Receptor binding is initiated by addition of 250 ul membrane preparation in duplicate to 0.1 nM of the following radioligands: ^125I-Bolton Hunter Lys-3 labeled substance P and ^125iodohistidyl-1-neurokinin A; in a final volume of 500 ul of buffer containing 50 mM Tris-HCl (pH 7.4 at room temperature), 0.1% bovine serum albumin, 2 mM mangenese chloride, 40 ug/ml bacitracin, 4 µg/ml leupeptin and chymostatin, 10 µM thiorphan and various doses of the putative tachykinin antagonists. Incubations are performed at room temperature for 90 min (NK1 receptor assays) or 2 hr (NK2 receptor assay); binding is terminated by addition of 50 mM Tris-HCl buffer (pH 7.4, 4°C) and filtration under vacuum through GF/B filters presoaked with 0.1% polyethyleneimine (NK1 receptor assays) or 0.5% bovine serum albumin (NK2 receptor assay). Filter bound radioactivity is quantitated in a gamma counter. Nonspecific binding is defined as binding in the presence of 1 µM substance P or neurokinin A. Specific binding is calculated by subtracting nonspecific binding from total binding. Competition of iodinated SP or NKA binding by test compounds or standards is expressed as a percentage of this maximum binding. IC50 values (concentration required to inhibit 50% of receptor binding) are generated for each of the test compounds by nonlinear regression using an iterative curve fitting program (GraphPAD Inplot, San Diego, CA).
(§2) Tackykinin receptor binding (IC50 values) for representative compounds of the present invention is found in Table 1. The values in Table 1 were determined by the method of present Example A and represent the mean of several experiments, except where noted. […]

In test [2] the target is T2, NK1 receptor (Cavia porcellus, UniProt P30547).
T2 construct: evaluated in guinea pig lungs (Keystone Biologicals, Cleveland, OH); tissue Keystone Biologicals, Cleveland, OH; host or cells: guinea pig lung membranes
Kind of test: Antagonism of iodinated tachykinin binding to NK1 receptors (Example A). Further details: species or system guinea pig. The procedure:
as §1, §2

Where a name gives a salt, the structure may show the parent alone.

T2 sequence (P30547 whole entry): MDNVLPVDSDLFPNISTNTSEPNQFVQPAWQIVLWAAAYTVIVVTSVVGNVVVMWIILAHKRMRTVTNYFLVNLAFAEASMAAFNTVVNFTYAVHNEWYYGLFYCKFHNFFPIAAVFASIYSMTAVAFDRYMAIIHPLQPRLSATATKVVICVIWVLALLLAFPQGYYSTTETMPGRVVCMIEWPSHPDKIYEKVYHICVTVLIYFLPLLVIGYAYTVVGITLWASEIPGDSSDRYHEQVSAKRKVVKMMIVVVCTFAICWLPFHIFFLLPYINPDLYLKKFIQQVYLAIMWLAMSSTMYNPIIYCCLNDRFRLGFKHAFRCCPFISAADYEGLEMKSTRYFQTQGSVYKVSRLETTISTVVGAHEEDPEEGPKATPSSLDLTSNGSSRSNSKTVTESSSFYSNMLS

Consider `CCOC(=O)CN1CCN(C(=O)C2(c3cccnc3)CCN(CC[C@]3(c4ccc(Cl)c(Cl)c4)CCN(C(=O)c4cc(OC)c(OC)c(OC)c4)C3)CC2)CC1` [Example 5.5, (R)-1-(3,4,5-trimethoxybenzoyl)-3-(2-(4-(pyrid-3-yl)-4-((4-carboethoxymethylpiperazin-1-yl)carboxamido)piperidin-1-yl)ethyl)-3-(3,4-dichlorophenyl)pyrrolidine hydrochloric acid salt], for which the figures for the IC50 in test [1] and in test [2] were 2.5 nM and 6.38 nM, respectively.

Take `COc1cc(C(=O)N2CC[C@](CCN3CCC(C(=O)N4CCN(CC(=O)O)CC4)(c4cccnc4)CC3)(c3ccc(Cl)c(Cl)c3)C2)cc(OC)c1OC` [Example 6.1, (R)-1-(3,4,5-trimethoxybenzoyl)-3-(2-(4-(pyrid-3-yl)-4-((4-carboxymethylpiperazin-1-yl)carboxamido)piperidin-1-yl)ethyl)-3-(3,4-dichlorophenyl)pyrrolidine hydrochloric acid salt]: the figures for the IC50 in test [1] and in test [2] were 14.7 nM and 16.1 nM, respectively.

For the molecule `CCOC(=O)CN1CCN(C(=O)C2(c3ccccc3)CCN(CC[C@]3(c4ccc(Cl)c(Cl)c4)CCN(C(=O)c4cc(OC)c(OC)c(OC)c4)C3)CC2)CC1` [Example 8.3.1, (R)-1-(3,4,5-trimethoxvbenzoyl)-3-(2-(4-phenyl-4-((4-carboethoxymethylpiperazin-1-yl)carboxamido)piperidine)ethyl)-3-(3,4-dichlorophenyl)pyrrolidine hydrochloric acid salt], the IC50 in test [1] came out at 2.41 nM; in test [2], 7.7 nM.

As to `COc1cc(C(=O)N2CC[C@](CCN3CCC(C(=O)N4CCN(CC(=O)O)CC4)(c4ccccc4)CC3)(c3ccc(Cl)c(Cl)c3)C2)cc(OC)c1OC` [Example 9.2, (R)-1-(3,4,5-trimethoxybenzoyl)-3-(2-(4-phenyl-4-((4-carboxymethylpiperazin-1-yl)carboxamido)piperidine)ethyl)-3-(3,4-dichlororophenyl)pyrrolidine hydrochloric acid salt], the IC50 in test [1] is 3.13 nM; in test [2], 5.63 nM.

On to `CCOC(=O)CN1CCN(C(=O)C2(c3ccccc3)CCN(CC[C@]3(c4ccc(Cl)c(Cl)c4)CCN(C(=O)c4cc(-n5cnnn5)ccc4OC)C3)CC2)CC1` [Example 10.4, (R)-1-(2-methoxy-5-(1H-tetrazol-1-yl)benzoyl)-3-(2-(4-phenyl-4-((4-carboethoxymethylpiperazin-1-yl)carboxamido)piperidine)ethyl)-3-(3,4-dichlorophenyl)pyrrolidine hydrochloric acid salt], for which the IC50 turned out to be 51.8 nM in test [1] and 8.42 nM in test [2].

On to `COc1ccc(-n2cnnn2)cc1C(=O)N1CC[C@](CCN2CCC(C(=O)N3CCN(CC(=O)O)CC3)(c3ccccc3)CC2)(c2ccc(Cl)c(Cl)c2)C1` [Example 11.1, (R)-1-(2-methoxy-5-(1H-tetrazol-1-yl)benzoyl)-3-(2-(4-phenyl-4-((4-carboxymethylpiperazin-1-yl)carboxamido)piperidin-1-yl)ethyl)-3-(3,4-dichlorophenyl)pyrrolidine hydrochloric acid salt], for which the IC50 is 70.7 nM in test [1] and 10.5 nM in test [2].

For the molecule `COc1cc(C(=O)N2CC[C@@](CCN3CCC(C(=O)N4CCN(CC(=O)O)CC4)(c4ccccc4)CC3)(c3ccc(Cl)c(Cl)c3)C2)cc(OC)c1OC` [Example 13.3, (S)-1-(3,4,5-trimethoxybenzoyl)-3-(2-(4-phenyl-4-((4-carboxymethylpiperazin-l-yl)carboxamido)piperidine)ethyl)-3-(3,4-dichlorophenyl)pyrrolidine hydrochloric acid salt], the IC50 in test [1] came out at 3.13 nM; in test [2], 5.63 nM.

As to `COC(=O)C1CCCN1C(=O)C1(c2ccccc2)CCN(CCC2(c3ccc(Cl)c(Cl)c3)CCN(C(=O)c3cc(OC)c(OC)c(OC)c3)C2)CC1` [Example 14.1, (R)-1-(3,4,5-Trimethoxybenzoyl)-3-(2-(4-phenyl-4-(((S)-2-carbomethoxypyrrolidin-1-yl)carboxamido)piperidin-1-yl)ethyl)-3-(3,4-dichlorophenyl)pyrrolidine], the figures for the IC50 in test [1] and in test [2] were 4.51 nM and 4.32 nM, respectively.

Turning to `COc1cc(C(=O)N2CC[C@](CCN3CCC(C(=O)N4CCC[C@H]4C(=O)O)(c4ccccc4)CC3)(c3ccc(Cl)c(Cl)c3)C2)cc(OC)c1OC` [Example 15.2, (R)-1-(3,4,5-trimethoxybenzonyl)-3-(2-(4-phenyl-4-(((S)-2-carboxypyrrolidin-1-yl)carboxamido)piperidin-1-yl)ethyl)-3-(3,4-dichlorophenyl)pyrrolidine hydrochloric acid salt], the results for the IC50 in test [1] and in test [2] were 17.4 nM and 14 nM, respectively.

On to `CCOC(=O)C1CCN(C(=O)C2(c3ccccc3)CCN(CC[C@]3(c4ccc(Cl)c(Cl)c4)CCN(C(=O)c4cc(OC)c(OC)c(OC)c4)C3)CC2)CC1` [Example 21.1, (R)-1-(3,4,5-Trimethoxybenzoyl)-3-(2-(4-phenyl-4-((4-carboethoxypiperidin-1-yl)carboxamido)piperidin-1-yl)ethyl)-3-(3,4-dichlorophenyl)pyrrolidine], for which the IC50 in test [1] was determined as 2.28 nM; in test [2] it was 10.4 nM.

As for `COc1cc(C(=O)N2CC[C@](CCN3CCC(C(=O)N4CCC(C(=O)O)CC4)(c4ccccc4)CC3)(c3ccc(Cl)c(Cl)c3)C2)cc(OC)c1OC` [Example 22.1, (R)-1-(3,4,5-trimethoxybenzoyl)-3-(2-(4-phenyl-4-((4-carboxypiperidin-1-yl)carboxamido)piperidin-1-yl)ethyl)-3-(3,4-dichlorophenyl)pyrrolidine hydrochloric acid salt], the values for the IC50 in test [1] and in test [2] were 6.29 nM and 4.05 nM, respectively.

As to `CCOC(=O)CN1CCN(C(=O)C2(c3ccccc3)CCN(CCC3(c4ccc(F)c(F)c4)CCN(C(=O)c4cc(OC)c(OC)c(OC)c4)C3)CC2)CC1` (stereo not drawn) [Example 23.8, 1-(3,4,5-trimethoxvbenzoyl)-3-(2-(4-phenyl-4-((4-carboethoxymethylpiperazin-1-yl)carboxamido)piperidin-1-yl)ethyl)-3-(3,4-difluorophenyl)pyrrolidine hydrochloric acid salt], the IC50 turned out to be 11.9 nM in test [1] and 8.41 nM in test [2].

`CCOC(=O)C1CN(C(=O)C2(c3ccccc3)CCN(CC[C@]3(c4ccc(Cl)c(Cl)c4)CCN(C(=O)c4cc(OC)c(OC)c(OC)c4)C3)CC2)CCO1` (stereo partly drawn) [Example 25.2, (R)-1-(3,4,5-trimethoxybenzoyl)-3-(2-(4-phenyl-4-((2-carboethoxymorpholin-4-yl)carboxamido)piperidin-1-yl)ethyl)-3-(3,4-dichlorophenyl)pyrrolidine fumaric acid salt]: the figures for the IC50 in test [1] and in test [2] were 6.5 nM and 14.4 nM, respectively.

As to `COc1cc(C(=O)N2CC[C@](CCN3CCC(C(=O)N4CCOC(C(=O)O)C4)(c4ccccc4)CC3)(c3ccc(Cl)c(Cl)c3)C2)cc(OC)c1OC` (stereo partly drawn) [Example 26.1, (R)-1-(3,4,5-Trimethoxybenzoyl)-3-(2-(4-phenyl-4-((2-carboxymorpholin-4-yl)carboxamido)piperidin-1-yl)ethyl)-3-(3,4-dichlorophenyl)pyrrolidine], the IC50 in test [1] turned out to be 5.7 nM; in test [2], 9.9 nM.

Turning to `CCOC(=O)CCN1CCN(C(=O)C2(c3ccccc3)CCN(CC[C@]3(c4ccc(Cl)c(Cl)c4)CCN(C(=O)c4cc(OC)c(OC)c(OC)c4)C3)CC2)CC1` [Example 27.3, (R)-1-(3,4,5-trimethoxvbenzoyl)-3-(2-(4-phenyl-4-((4-carboethoxyethylpiperazin-1-yl)carboxamido)piperidine)ethyl)-3-(3,4-dichlorophenyl)pyrrolidine hydrochloric acid salt], the IC50 in test [1] is 2.34 nM; in test [2], 9.1 nM.

For orientation: IC50 means the concentration at which inhibition is half-maximal. Low values mean inhibition by little substance, high ones a need for much substance.
